Like-named read-outs stand apart in the source and are kept apart here.
What was measured:
Septoria tritici [1] = test: In vitro test for the calculation of the ED50-value with microorganisms, Example Q4: Septoria tritici; format: cell-based; conditions: liquid culture, spore suspension, 4 to 7 days incubation, spectrometric measurement of mycelium growth
Botrytis cinerea [2] = test: In vivo preventive test on Botrytis cinerea (grey mould) on gherkin, Examples B, Q1 and R2
Septoria tritici [3] = test: In vivo preventive test on Septoria tritici (leaf spot on wheat), Examples E, Q3 and R5; conditions: for pest or weed control at 500 ppm / pest or weed control at 100 ppm: Zymoseptoria tritici, 576 h
Leptosphaeria nodorum [4] = test: In vitro test for the calculation of the ED50-value with microorganisms, Example Q4: Leptosphaeria nodorum; format: cell-based; conditions: liquid culture, spore suspension, 4 to 7 days incubation, spectrometric measurement of mycelium growth
Pyrenophora teres = test: In vivo preventive test on Pyrenophora teres (net blotch on barley), Examples D, Q2 and R4; conditions: for pest or weed control at 500 ppm / pest or weed control at 100 ppm: Pyrenophora teres, 336 h
Botrytis cinerea [5] = test: In vitro test for the calculation of the ED50-value with microorganisms, Example Q4: Botrytis cinerea; format: cell-based; conditions: liquid culture, spore suspension, 4 to 7 days incubation, spectrometric measurement of mycelium growth
Fusarium culmorum [6] = test: In vitro test for the calculation of the ED50-value with microorganisms, Example Q4: Fusarium culmorum; format: cell-based; conditions: liquid culture, spore suspension, 4 to 7 days incubation, spectrometric measurement of mycelium growth
Description: • Solvent: Dimethyl sulfoxide • Culture medium: 14.6 g anhydrous D-glucose (VWR), 7.1 g Mycological Peptone (Oxoid), 1.4 g granulated Yeast Extract (Merck), QSP liter • Inoculum: Spore suspension
Fungicides were solubilized in DMSO and the solution used to prepare the required range of concentrations. The final concentration of DMSO used in the assay was ≤1%.
A spore suspension was prepared and diluted to the desired spore density.
Fungicides were evaluated for their ability to inhibit spore germination and mycelium growth in liquid culture assay. The compounds were added in the desired concentration to the culture medium with spores. After 4 to 7 days incubation, fungi-toxicity of compounds was determined by spectrometric measurement of mycelium growth. Inhibition of fungal growth was determined by comparing the absorbance values in wells containing the fungicides with the absorbance in control wells without fungicides.

Uromyces appendiculatus = test: In vivo preventive test on Uromyces appendiculatus (bean rust), Examples G and R7; conditions: 264 h, preventive spray, evaluated 11 days after inoculation
[7] = system: Blumeria graminis fsp. hordei; test: In vivo preventive Blumeria test (barley), Example K; conditions: 168 h, 500 ppm of active ingredient, preventive spray, evaluated 7 days after inoculation, read-out: efficacy
From the text: After the spray coating has been dried, the plants are dusted with spores of Blumeria graminis fsp. hordei.

Sphaerotheca fuliginea = test: In vivo preventive test on Sphaerotheca fuliginea (powdery mildew on cucurbits), Examples F and R6; conditions: Podosphaera fuliginea, 360 h, preventive spray, evaluated 15 days after inoculation
Phakopsora pachyrhizi = test: In vivo preventive Phakopsora test (soybeans), Example I; conditions: 168 h, 100 ppm of active ingredient, preventive spray, evaluated 7 days after inoculation, read-out: efficacy
Fusarium culmorum [8] = test: In vivo preventive Fusarium culmorum test (wheat), Example L; conditions: 120 h, 500 ppm of active ingredient, preventive spray, evaluated 5 days after inoculation, read-out: efficacy
Description: After the spray coating has been dried, the plants are slightly injured by using a sandblast and afterwards they are sprayed with a conidia suspension of Fusarium culmorum.
The test is evaluated 5 days after the inoculation.

[9] = system: Fusarium nivale (var. majus); test: In vivo preventive Fusarium nivale (var. majus) test (wheat), Example O; conditions: Microdochium nivale, 120 h, 500 ppm of active ingredient, preventive spray, evaluated 5 days after inoculation, read-out: efficacy
From the text: After the spray coating has been dried, the plants are slightly injured by using a sandblast and afterwards they are sprayed with a conidia suspension of Fusarium nivale (var. majus).

Leptosphaeria nodorum [10] = test: In vivo preventive Leptosphaeria nodorum test (wheat), Example N; conditions: Parastagonospora nodorum, 192 h, 500 ppm of active ingredient, preventive spray, evaluated 8 days after inoculation, read-out: efficacy
From the text: After the spray coating has been dried, the plants are sprayed with a spore suspension of Leptosphaeria nodorum.

Venturia inaequalis = test: In vivo preventive Venturia test (apples), Example J; conditions: 240 h, read-out: efficacy
Description: After the spray coating has dried on, the plants are inoculated with an aqueous conidia suspension of the causal agent of apple scab (Venturia inaequalis) and then remain for 1 day in an incubation cabinet at approximately 20° C. and a relative atmospheric humidity of 100%.
The plants are then placed in a greenhouse at approximately 21° C. and a relative atmospheric humidity of approximately 90%.
The test is evaluated 10 days after the inoculation.

Puccinia recondita = test: In vivo preventive test on Puccinia recondita (brown rust on wheat), Examples C and R3; conditions: Puccinia recondita, 264 h, preventive spray, evaluated 11 days after inoculation
Pyricularia oryzae = test: whole plant or invertebrate; format: in vivo; conditions: 192 h, read-out: efficacy
[11] = Measurement of LogP values by HPLC on reversed phase columns (EEC directive 79/831 Annex V.A8); format: physicochemical; conditions: method [a]: LC-UV, acidic range, 0.1% formic acid in water and acetonitrile as eluent; Table 1
Description: Measurement of Log P values was performed as outlined above.

Alternaria brassicae = test: In vivo preventive test on Alternaria brassicae (leaf spot on radish), Examples A and R1; conditions: Alternaria brassicae, 144 h, 500 ppm of active ingredient, preventive spray, evaluated 6 days after inoculation, read-out: efficacy
Fusarium graminearum = test: whole plant or invertebrate; format: in vivo; conditions: in Hordeum vulgare, 120 h, read-out: efficacy
Alternaria solani = test: In vivo preventive Alternaria test (tomatoes), Example H; conditions: 72 h, 100 ppm of active ingredient, preventive spray, evaluated 3 days after inoculation, read-out: efficacy
[12] = 500 ppm of active ingredient, bean, read-out: efficacy
[13] = Botrytis cinerea, 500 ppm of active ingredient, preventive spray, evaluated 4 to 5 days after inoculation, read-out: efficacy
[14] = 500 ppm of active ingredient, gherkin, read-out: efficacy
[15] = 500 ppm of active ingredient, wheat, preventive spray, evaluated 24 days after inoculation, read-out: efficacy
[16] = 500 ppm of active ingredient, preventive spray, evaluated 14 days after inoculation, read-out: efficacy
[17] = 500 ppm of active ingredient, wheat, read-out: efficacy

Row | SMILES | Septoria tritici ED50 value in ppm (Septoria tritici [1]) | Leptosphaeria nodorum ED50 value in ppm (Leptosphaeria nodorum [4]) | Botrytis cinerea ED50 value in ppm (Botrytis cinerea [5]) | Fusarium culmorum ED50 value in ppm (Fusarium culmorum [6]) | pest or weed control at 500 ppm (Uromyces appendiculatus; [12]) | pest or weed control at 500 ppm [7] | pest or weed control at 500 ppm (Botrytis cinerea [2]; [13]) | pest or weed control at 500 ppm (Sphaerotheca fuliginea; [14]) | pest or weed control at 100 ppm (Phakopsora pachyrhizi) | pest or weed control at 500 ppm (Fusarium culmorum [8]) | pest or weed control at 500 ppm [9] | pest or weed control at 500 ppm (Leptosphaeria nodorum [10]) | pest or weed control at 500 ppm (Septoria tritici [3]; [15]) | pest or weed control at 500 ppm (Pyrenophora teres; [16]) | pest or weed control at 100 ppm (Venturia inaequalis) | pest or weed control at 500 ppm (Puccinia recondita; [17]) | pest or weed control at 500 ppm (Pyricularia oryzae) | chromatographic logP [11] | pest or weed control at 500 ppm (Fusarium graminearum) | pest or weed control at 100 ppm (Alternaria solani) | also measured
1 | OC(Cc1ccc(Cl)cc1F)(Cn1ccnc1)C1(Cl)CC1 (racemic) [reference compound] | 0.02 ppm | 0.04 ppm | 0.53 ppm | 0.04 ppm | – | – | – | – | – | – | – | – | – | – | – | – | – | – | – | – | Efficacy in % (Botrytis cinerea [2]; Example Q1, rate of application 100 ppm): 70%; Efficacy in % (Botrytis cinerea [2]; Example Q1, rate of application 500 ppm): 100%; Efficacy in % (Septoria tritici [3]; Example Q3, rate of application 100 ppm, wheat): 0%; Efficacy in % (Septoria tritici [3]; Example Q3, rate of application 500 ppm, wheat): 100%; Efficacy in % (Pyrenophora teres; Example Q2, rate of application 100 ppm): 0%; Efficacy in % (Pyrenophora teres; Example Q2, rate of application 500 ppm): 0%
2 | OC(Cc1ccccc1Cl)(Cn1cncc1F)C1(Cl)CC1 (stereo not drawn) [Example I-16] | – | – | – | – | 90 to 100% | 90 to 100% | 90 to 100% | 90 to 100% | 90 to 100% | 90 to 100% | 90 to 100% | 90 to 100% | 90 to 100% | 90 to 100% | 90 to 100% | 80 to 89% | 90 to 100% | 1.94 | 80 to 89% | 90 to 100% | pest or weed control at 500 ppm (Alternaria brassicae): 90 to 100%
3 | OC(Cc1cc(F)ncc1Cl)(Cn1cncc1Cl)C1(Cl)CC1 (stereo not drawn) [Example I-18] | – | – | – | – | 90 to 100% | 90 to 100% | 90 to 100% | 90 to 100% | 90 to 100% | 80 to 89% | 90 to 100% | 90 to 100% | 90 to 100% | 90 to 100% | 90 to 100% | 90 to 100% | 90 to 100% | 2.01 | 90 to 100% | 90 to 100% | pest or weed control at 500 ppm (Alternaria brassicae): 70 to 79%
4 | OC(Cc1ccc(Cl)cc1F)(Cn1cncc1Br)C1(Cl)CC1 (stereo not drawn) [Example I-30] | <0.006 ppm | 0.01 ppm | 0.08 ppm | 0.01 ppm | 90 to 100% | 90 to 100% | 90 to 100% | 90 to 100% | 90 to 100% | – | – | 90 to 100% | 90 to 100% | 90 to 100% | 90 to 100% | 90 to 100% | 90 to 100% | 2.55 | – | 90 to 100% | pest or weed control at 100 ppm (Uromyces appendiculatus; Example R7, bean, 100 ppm, read-out: Efficacy in %): 88%; pest or weed control at 500 ppm (Uromyces appendiculatus; Example R7, bean, 500 ppm, read-out: Efficacy in %): 100%; pest or weed control at 100 ppm (Botrytis cinerea [2]; Botrytis cinerea, Example Q1, rate of application 100 ppm, read-out: Efficacy in %): 100%; pest or weed control at 500 ppm (Botrytis cinerea [2]; Botrytis cinerea, Example Q1, rate of application 500 ppm, read-out: Efficacy in %): 100%; Efficacy in % (Botrytis cinerea [2]; Example R2, rate of application 100 ppm): 100%; Efficacy in % (Botrytis cinerea [2]; Example R2, rate of application 500 ppm): 100%; pest or weed control at 100 ppm (Sphaerotheca fuliginea; Example R6, gherkin, 100 ppm, read-out: Efficacy in %): 100%; pest or weed control at 500 ppm (Sphaerotheca fuliginea; Example R6, gherkin, 500 ppm, read-out: Efficacy in %): 100%; pest or weed control at 100 ppm (Septoria tritici [3]; Example Q3, rate of application 100 ppm, wheat, read-out: Efficacy in %): 94%; pest or weed control at 500 ppm (Septoria tritici [3]; Example Q3, rate of application 500 ppm, wheat, read-out: Efficacy in %): 98%; pest or weed control at 100 ppm (Septoria tritici [3]; Example R5, wheat, preventive spray, 100 ppm, evaluated 24 days after inoculation, read-out: Efficacy in %): 94%; pest or weed control at 500 ppm (Septoria tritici [3]; Example R5, wheat, preventive spray, 500 ppm, evaluated 24 days after inoculation, read-out: Efficacy in %): 98%; pest or weed control at 100 ppm (Pyrenophora teres; Example Q2, rate of application 100 ppm, read-out: Efficacy in %): 91%; pest or weed control at 500 ppm (Pyrenophora teres; Example Q2, rate of application 500 ppm, read-out: Efficacy in %): 94%; pest or weed control at 100 ppm (Pyrenophora teres; Example R4, rate of application 100 ppm, read-out: Efficacy in %): 81%; pest or weed control at 500 ppm (Pyrenophora teres; Example R4, rate of application 500 ppm, read-out: Efficacy in %): 94%; pest or weed control at 100 ppm (Puccinia recondita; Example R3, wheat, 100 ppm, read-out: Efficacy in %): 88%; pest or weed control at 500 ppm (Puccinia recondita; Example R3, wheat, 500 ppm, read-out: Efficacy in %): 94%
5 | N#Cc1cncn1CC(O)(Cc1ccccc1)C1(Cl)CC1 (stereo not drawn) [Example I-65] | – | – | – | – | 90 to 100% | 90 to 100% | 90 to 100% | 90 to 100% | 90 to 100% | 90 to 100% | 90 to 100% | 80 to 89% | 80 to 89% | 90 to 100% | 80 to 89% | 90 to 100% | 90 to 100% | 2.64 | 90 to 100% | 90 to 100% | –
6 | N#Cc1cncn1CC(O)(Cc1ccc(F)cc1)C1(Cl)CC1 (stereo not drawn) [Example I-157] | – | – | – | – | 90 to 100% | 90 to 100% | 90 to 100% | 90 to 100% | 90 to 100% | 90 to 100% | 80 to 89% | 80 to 89% | 90 to 100% | 90 to 100% | 90 to 100% | 90 to 100% | 90 to 100% | 2.75 | 90 to 100% | 80 to 89% | –

— patent US10231453B2, “5-substituted imidazole derivatives” (BAYER CROPSCIENCE AKTIENGESELLSCHAFT, priority 2015, dated 2019)
